Laboratory results: patent US9079913B2, “Spiro-oxindole MDM2 antagonists” (The Regents of the University of Michigan, priority 2009, dated 2015)
Where two headings read alike, the source gives them in different places.

What was measured:
[1] = system: Isogenic HCT-116 colon cancer cell lines; assay: cells; type: cell-based;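 note: cells grown in 96-well plates in McCoy's 5A medium with 10% FBS, exposed to compound for 4 days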
Method: Cells were seeded in 96-well flat bottom cell culture plates at a density of 2−3×10^3 cells/well with compounds and incubated for 4 days.

[2] = target: recombinant human His-tagged MDM2 protein (residues 1-118) (Homo sapiens (Human), UniProt Q00987); assay: Fluorescence-polarization MDM2 binding assay;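 note: fluorescence polarization read after three hours of incubation in potassium phosphate buffer containing bovine gamma globulin and Triton X-100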
recombinant human His-tagged MDM2 protein (residues 1-118), sequence (Q00987 1-118): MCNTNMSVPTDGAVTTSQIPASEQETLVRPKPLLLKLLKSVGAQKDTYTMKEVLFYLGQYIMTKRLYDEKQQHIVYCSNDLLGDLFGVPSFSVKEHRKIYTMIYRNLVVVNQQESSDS

[3] = system: cancer cell lines with wild-type p53 / mutated or deleted p53 (ATCC); assay: Cell growth assay (WST-8), other cancer cell lines; type: cell-based
[4] = Homo sapiens, HCT-116, read-out: HCT-116 (p53-/-) IC50, Table 19A, HCT-116 p53-/-, cell growth
[5] = Homo sapiens, HCT-116, read-out: HCT-116 (p53 wild-type) IC50, Table 19A, HCT-116 p53 wild-type, cell growth
[6] = Table 19A, FP binding assay, read-out: MDM2 IC50
[7] = Homo sapiens, LNCaP, Table 19A, LNCAP cells, p53 wild-type, cell growth, read-out: LNCAP (p53 wild-type) IC50
[8] = Homo sapiens, PC-3, Table 19A, PC-3 cells, deleted p53, cell growth, read-out: PC-3 (deleted p53) IC50
[9] = Homo sapiens, HCT-116, read-out: Inhibition of cell growth IC50, HCT116 p53 KO, Table 19B, HCT116 p53 KO
[10] = Homo sapiens, HCT-116, read-out: Inhibition of cell growth IC50, HCT116 p53 WT, Table 19B, HCT116 p53 WT
[11] = Table 19B, read-out: Binding affinities to MDM2 protein as determined by FP based assay IC50
[12] = Homo sapiens, LNCaP, Table 19B, LNCaP cells, read-out: Inhibition of cell growth IC50, LNCaP
[13] = Homo sapiens, PC-3, Table 19B, PC3 cells, read-out: Inhibition of cell growth IC50, PC3
[14] = Homo sapiens, HCT-116, read-out: Cell growth inhibition using WST assay, HCT116 p53KO IC50, Table 19C, HCT116 p53KO
[15] = Homo sapiens, HCT-116, read-out: Cell growth inhibition using WST assay, HCT116 p53WT IC50, Table 19C, HCT116 p53WT
[16] = Table 19C, read-out: Bidning affinities to MDM2 as determined using FP assay IC50
[17] = Homo sapiens, LNCaP, Table 19C, LNCaP cells, read-out: Cell growth inhibition using WST assay, LNCaP IC50
[18] = Homo sapiens, PC-3, Table 19C, PC3 cells, read-out: Cell growth inhibition using WST assay, PC3 IC50

Structure (SMILES): CC(C)(C)C[C@H]1N[C@@H](C(=O)NC2CCC(OC(=O)CN)CC2)[C@H](c2cccc(Cl)c2F)[C@@]12C(=O)Nc1cc(Cl)ccc12 (stereo partly shown) [MI-901]
- IC50 [1, 4]: > 10 µM
- IC50 [1, 5]: < 3 µM
- IC50 [2, 6]: < 1 µM
- IC50 [3, 7]: < 3 µM
- IC50 [3, 8]: > 5 µM
- IC50 ([3]; Homo sapiens, SJSA-1, Table 19A, SJSA-1 cells, p53 wild-type, cell growth, read-out: SJSA-1 (p53 wild-type) IC50): < 3 µM

Structure (SMILES): CCCCC(C)(C)C[C@H]1N(C)[C@@H](C(=O)NCC[C@H](O)CO)[C@H](c2cccc(Cl)c2)[C@@]12C(=O)Nc1cc(Cl)c(F)cc12 [MI-728]
- IC50 [1, 9]: 16.9 ± 5.6 µM
- IC50 [1, 10]: 4 ± 0.8 µM
- IC50 [2, 11]: < 5 µM
- IC50 [3, 12]: 2.1 ± 0.1 µM
- IC50 [3, 13]: 7.1 ± 2 µM

Structure (SMILES): O=C(NCC[C@H](O)CO)[C@@H]1N[C@H](CCCc2cccs2)[C@]2(C(=O)Nc3cc(Cl)c(F)cc32)[C@H]1c1cccc(Cl)c1 [MI-710]
- IC50 [1, 9]: 12.4 ± 1.2 µM
- IC50 [1, 10]: 1.3 ± 0.3 µM
- IC50 [2, 11]: > 1 µM
- IC50 [3, 12]: 1.2 ± 0.2 µM
- IC50 [3, 13]: 12.4 ± 1.9 µM

Structure (SMILES): CC(C)CC(C)(C)C[C@H]1N(C)[C@@H](C(=O)NCC[C@H](O)CO)[C@H](c2cccc(Cl)c2)[C@@]12C(=O)Nc1cc(F)c(F)cc12 [MI-737]
- IC50 [1, 9]: 24.4 µM
- IC50 [1, 10]: 5 µM
- IC50 ([1]; read-out: Inhibition of cell growth IC50, HCT116 p53 KO, Table 19B, HCT116 p53 KO): 15 µM
- IC50 ([1]; read-out: Inhibition of cell growth IC50, HCT116 p53 WT, Table 19B, HCT116 p53 WT): 4.5 µM
- IC50 [2, 11]: > 1 µM
- IC50 [3, 12]: 3.53 µM
- IC50 [3, 13]: 11.3 µM
- IC50 ([3]; Table 19B, LNCaP cells, read-out: Inhibition of cell growth IC50, LNCaP): 3.73 µM
- IC50 ([3]; Table 19B, PC3 cells, read-out: Inhibition of cell growth IC50, PC3): 11.6 µM

Structure (SMILES): CC(C)CC(C)(C)C[C@H]1N(C)[C@@H](C(=O)NCC[C@H](O)CO)[C@H](c2cccc(Cl)c2F)[C@@]12C(=O)Nc1cc(Cl)c(F)cc12 [MI-733]
- IC50 [1, 9]: 8.7 ± 0.9 µM
- IC50 [1, 10]: 2.4 ± 0.3 µM
- IC50 [2, 11]: > 1 µM
- IC50 [3, 12]: 2.2 ± 0.5 µM
- IC50 [3, 13]: 5.4 ± 1.7 µM

Structure (SMILES): CC(C)(C)C[C@H]1N[C@@H](C(=O)NC[C@H](O)[C@H](O)CO)[C@H](Cc2cccc(Cl)c2)[C@@]12C(=O)Nc1cc(Cl)c(F)cc12 [MI-319-24]
- IC50 [1, 14]: > 10 µM
- IC50 [1, 15]: < 5 µM
- IC50 [2, 16]: < 1 µM
- IC50 [3, 17]: < 5 µM
- IC50 [3, 18]: > 10 µM

Structure (SMILES): CC(C)(CCO)C[C@H]1N[C@@H](C(=O)NCC[C@H](O)CO)[C@H](c2cccc(Cl)c2)[C@@]12C(=O)Nc1cc(Cl)c(F)cc12 [MI-319-36]
- IC50 [1, 14]: > 30 µM
- IC50 [1, 15]: 12.2 ± 1.7 µM
- IC50 [2, 16]: < 5 µM
- IC50 [3, 17]: 6.4 ± 1.4 µM
- IC50 [3, 18]: > 30 µM

Structure (SMILES): CC(C)(C)C[C@H]1N[C@@H](C(=O)N2CCNCC2)[C@H](c2cccc(Cl)c2)[C@@]12C(=O)Nc1cc(Cl)c(F)cc12 [MI-739]
- IC50 [1, 4]: 3 ± 0.2 µM
- IC50 [1, 5]: 2.1 ± 0.6 µM
- IC50 [2, 6]: < 5 µM
- IC50 [3, 7]: 1.5 ± 0.5 µM
- IC50 [3, 8]: 3.2 ± 0.7 µM

Structure (SMILES): CN(C)CCC(=O)N1CCN(C(=O)[C@@H]2N[C@H](CC(C)(C)C)[C@]3(C(=O)Nc4cc(Cl)c(F)cc43)[C@H]2c2cccc(Cl)c2)CC1 [MI-746]
- IC50 [1, 4]: 6.7 ± 1.8 µM
- IC50 [1, 5]: 2.3 ± 0.1 µM
- IC50 [2, 6]: < 10 µM
- IC50 [3, 7]: 2.2 ± 0.4 µM
- IC50 [3, 8]: 6.9 ± 1.2 µM

Structure (SMILES): CN1[C@@H](C(=O)NCC[C@H](O)CO)[C@H](c2cccc(Cl)c2F)[C@@]2(C(=O)Nc3cc(F)c(F)cc32)[C@H]1CC(C)(C)C [MI-718]
- IC50 [1, 9]: 47.2 ± 5 µM
- IC50 [1, 10]: 3 ± 1.1 µM
- IC50 [2, 11]: > 3 µM
- IC50 [3, 12]: 3.7 ± 0.3 µM
- IC50 [3, 13]: 34.2 ± 0.4 µM

Structure (SMILES): CC(C)(C)C[C@H]1N[C@@H](C(=O)NCC[C@H](O)CO)[C@H](c2cc(Cl)ccn2)[C@@]12C(=O)Nc1cc(Cl)c(F)cc12 [MI-319-35]
- IC50 [1, 14]: > 10 µM
- IC50 [1, 15]: 4.8 ± 0.5 µM
- IC50 [2, 16]: < 10 µM
- IC50 [3, 17]: 3.2 ± 0.3 µM
- IC50 [3, 18]: > 10 µM

Structure (SMILES): O=C(NCC[C@H](O)CO)[C@@H]1N[C@H](CC2CC2)[C@]2(C(=O)Nc3cc(Cl)c(F)cc32)[C@H]1c1cccc(Cl)c1 [MI-706]
- IC50 [1, 9]: 1.3 ± 0.2 µM
- IC50 [1, 10]: 0.6 ± 0.1 µM
- IC50 [2, 11]: < 10 µM
- IC50 [3, 12]: 0.3 µM
- IC50 [3, 13]: 4.6 ± 2.9 µM

Structure (SMILES): CC(C)(C)C[C@H]1N[C@@H](C(=O)NCCC2CCC(O)C2)[C@H](c2cccc(Cl)c2)[C@@]12C(=O)Nc1cc(F)c(F)cc12 (stereo partly shown) [MI-519-26]
- IC50 ([1]; read-out: HCT116p53KO IC50, Table 19D, HCT116 p53KO): > 10 µM
- IC50 ([1]; read-out: HCT116p53WT IC50, Table 19D, HCT116 p53WT): < 5 µM
- IC50 ([2]; Table 19D, read-out: MDM2 Binding Affinities IC50): < 10 µM
- IC50 ([3]; Table 19D, LNCaP cells, read-out: LNCaP IC50): < 5 µM
- IC50 ([3]; Table 19D, PC3 cells, read-out: PC3 IC50): > 10 µM
